The results in this text go back to patent publication US8361968B2 (Takeda Pharmaceutical Company Limited, priority 2002, dated 2013).

The experiment addresses hOT7T175 (Homo sapiens, UniProt Q969F8, L364H). As to the kind of experiment: Intracellular Ca ion level-increasing activity using FLIPR in hOT7T175/CHO. The class given is cell-based. Further details: expressed in transfected cells; host or cells: CHO/dhfr- cells, obtained from ATCC. To be noted: relative, Metastin (1-54) = 1.

Numbered stars: 1 amine (or outer) side, 2 acyl side, 3 side chain; on linkers, the order of the positions; unused ones are H or OH. Square brackets hold non-standard residues; d marks the D form. Ends that are not written are not given here. Peptide text beside a SMILES is read from it. * marks the point of attachment. X5 = NC(=O)C[C@@H](CN([C@@H](Cc1c[nH]c2ccccc12)C(=O)[*:2])[*:1])N[*:3]; Phe(3-Cl) = N[C@@H](Cc1cccc(Cl)c1)C(=O)O; Arg(Me) = CNC(=N)NCCC[C@H](N)C(=O)O; Tryptamide = c1ccc2c(CCN*)c[nH]c2c1; d3Pal = N[C@H](Cc1cccnc1)C(=O)O; CO = O=C([*:1])[*:2]; azaGly = NNC(=O)O

hOT7T175, sequence (Q969F8 whole entry L364H): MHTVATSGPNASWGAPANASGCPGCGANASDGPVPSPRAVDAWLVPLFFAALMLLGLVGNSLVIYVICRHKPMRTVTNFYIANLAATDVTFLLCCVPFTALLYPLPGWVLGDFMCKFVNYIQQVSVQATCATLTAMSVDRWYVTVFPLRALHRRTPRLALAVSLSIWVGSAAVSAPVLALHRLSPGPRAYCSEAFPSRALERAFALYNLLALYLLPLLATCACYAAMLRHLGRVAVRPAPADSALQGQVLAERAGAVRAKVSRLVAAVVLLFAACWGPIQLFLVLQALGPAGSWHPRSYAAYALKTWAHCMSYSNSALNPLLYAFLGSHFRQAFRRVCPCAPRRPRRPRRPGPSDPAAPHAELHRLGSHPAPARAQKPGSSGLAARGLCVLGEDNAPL

`CNC(=N)NCCC[C@H](NC(=O)[C@H](CC(C)C)NC(=O)CNC(=O)[C@H](Cc1ccccc1)NC(=O)[C@H](CO)NC(=O)[C@H](CC(N)=O)NC(=O)[C@H](C)NC(=O)[C@H](CC(N)=O)NC(=O)[C@H](N)Cc1ccc(O)cc1)C(=O)N[C@@H](Cc1ccccc1)C(N)=O` [Compound No. 169] (H-[dY]NANSFGL[Arg(Me)]F-NH2): the “Specific Activity (intracellular Ca ion level-increasing activity)” value is recorded as 2. To `CNC(=N)NCCC[C@H](NC(=O)[C@H](CC(C)C)NC(=O)NNC(=O)[C@H](Cc1ccccc1)NC(=O)[C@H](CO)NC(=O)[C@H](CC(N)=O)NC(=O)[C@H](Cc1cccc(Cl)c1)NC(=O)[C@H](CC(N)=O)NC(=O)[C@H](N)Cc1ccc(O)cc1)C(=O)N[C@@H](Cc1ccccc1)C(N)=O` [Compound No. 248, D-Tyr-Asn-Phe(3Cl)-Asn-Ser-Phe-AzaGly-Leu-Arg(Me)-Phe-NH2] (H-[dY]N[Phe(3-Cl)]NSF[azaGly]L[Arg(Me)]F-NH2) belongs 2. Consider `CNC(=N)NCCC[C@H](NC(=O)[C@H](CC(C)C)NC(=O)NNC(=O)[C@H](Cc1ccccc1)NC(=O)[C@H](CO)NC(=O)[C@H](CC(N)=O)NC(=O)[C@H](Cc1c[nH]c2ccccc12)NC(=O)[C@H](N)Cc1cccnc1)C(=O)N[C@@H](Cc1ccccc1)C(N)=O` [Compound No. 289, D-Pya(3)-Trp-Asn-Ser-Phe-AzaGly-Leu-Arg(Me)-Phe-NH2] (H-[d3Pal]WNSF[azaGly]L[Arg(Me)]F-NH2), for which the “Specific Activity (intracellular Ca ion level-increasing activity)” value worked out at 1.

Regarding “2-Aminoethyl-Gly-D-Tyr-Asn-Trp-Asn-Ser-Phe-Gly-Leu-Arg(Me)-Phe-NH2 [Compound No. 375]”, the “Specific Activity (intracellular Ca ion level-increasing activity)” value is 2.

Take `CNC(=N)NCCC[C@H](NC(=O)[C@H](CC(C)C)NC(=O)NNC(=O)[C@H](Cc1ccccc1)NC(=O)[C@H](CO)NC(=O)[C@H](CC(N)=O)NC(=O)NCCc1c[nH]c2ccccc12)C(=O)N[C@@H](Cc1ccccc1)C(N)=O` [Compound No. 279, 2-(indol-3-yl)ethylcarbamoyl-Asn-Ser-Phe-AzaGly-Leu-Arg(Me)-Phe-NH2] ({Tryptamide-CO}-NSF[azaGly]L[Arg(Me)]F-NH2): the “Specific Activity (intracellular Ca ion level-increasing activity)” value was 5. Take `CNC(=N)NCCC[C@H](NC(=O)[C@H](CC(C)C)NC(=O)CNC(=O)[C@H](Cc1ccccc1)NC(=O)[C@H](CO)NC(=O)[C@H](CC(N)=O)NC(=O)[C@H](Cc1c[nH]c2ccccc12)NC(=O)[C@H](CCC(N)=O)NC(=O)[C@H](N)Cc1ccc(O)cc1)C(=O)N[C@@H](Cc1ccccc1)C(N)=O` [Compound No. 214] (H-[dY]QWNSFGL[Arg(Me)]F-NH2): the “Specific Activity (intracellular Ca ion level-increasing activity)” value is 10.

Take `CC(C)C[C@H](NC(=O)CNC(=O)[C@H](Cc1ccccc1)NC(=O)[C@H](CO)NC(=O)[C@H](CC(N)=O)NC(=O)[C@@H](Cc1c[nH]c2ccccc12)NC(=O)[C@H](CC(N)=O)NC(=O)[C@@H](N)Cc1ccc(O)cc1)C(=O)N[C@@H](CCCNC(=N)N)C(=O)N[C@@H](Cc1ccccc1)C(N)=O` [Compound No. 40]: the “Specific Activity (intracellular Ca ion level-increasing activity)” value was determined as 30.

For `CC(C)C[C@H](NC(=O)CNC(=O)[C@H](Cc1ccccc1)NC(=O)[C@H](CO)NC(=O)[C@H](CC(N)=O)NC(=O)[C@H](Cc1c[nH]c2ccccc12)NC[C@H](CC(N)=O)NC(=O)[C@@H](N)Cc1ccc(O)cc1)C(=O)N[C@@H](CCCNC(=N)N)C(=O)N[C@@H](Cc1ccccc1)C(N)=O` [Compound No. 295] (H-[X5](Tyr)NSFGLRF-NH2), the “Specific Activity (intracellular Ca ion level-increasing activity)” value amounted to 1. The same measure for `CNC(=N)NCCC[C@H](NC(=O)[C@H](CC(C)C)NC(=O)CNC(=O)[C@H](Cc1ccccc1)NC(=O)[C@H](CO)NC(=O)[C@H](CC(N)=O)NC(=O)[C@H](Cc1c[nH]c2ccccc12)NC(=O)[C@@H](NC(=O)[C@H](N)Cc1ccc(O)cc1)[C@@H](C)O)C(=O)N[C@@H](Cc1ccccc1)C(N)=O` [Compound No. 215] (H-[dY]TWNSFGL[Arg(Me)]F-NH2; N-terminus assumed): 10. As for “D-Tyr-Asn-Trp-Ser-Ser-Phe-Gly-Leu-Arg(Me)-Phe-NH2 ([dY]NWSSFGL[Arg(Me)]F-NH2; N-terminus assumed; SMILES CNC(=N)NCCC[C@H](NC(=O)[C@H](CC(C)C)NC(=O)CNC(=O)[C@H](Cc1ccccc1)NC(=O)[C@H](CO)NC(=O)[C@H](CO)NC(=O)[C@H](Cc1c[nH]c2ccccc12)NC(=O)[C@H](CC(N)=O)NC(=O)[C@H](N)Cc1ccc(O)cc1)C(=O)N[C@@H](Cc1ccccc1)C(N)=O) [Compound No. 207]”, the “Specific Activity (intracellular Ca ion level-increasing activity)” value is on record as “½”. `CNC(=N)NCCC[C@H](NC(=O)[C@H](CC(C)C)NC(=O)CNC(=O)[C@H](Cc1ccccc1)NC(=O)[C@H](CO)NC(=O)[C@H](C)NC(=O)[C@H](Cc1c[nH]c2ccccc12)NC(=O)[C@H](CC(N)=O)NC(=O)[C@H](N)Cc1ccc(O)cc1)C(=O)N[C@@H](Cc1ccccc1)C(N)=O` [Compound No. 210] (H-[dY]NWASFGL[Arg(Me)]F-NH2): the “Specific Activity (intracellular Ca ion level-increasing activity)” value came out at 1.

In the case of `CC(C)C[C@H](NC(=O)CNC[C@H](Cc1ccccc1)NC(=O)[C@H](CO)NC(=O)[C@H](CC(N)=O)NC(=O)[C@H](Cc1c[nH]c2ccccc12)NC(=O)[C@H](CC(N)=O)NC(=O)[C@@H](N)Cc1ccc(O)cc1)C(=O)N[C@@H](CCCNC(=N)N)C(=O)N[C@@H](Cc1ccccc1)C(N)=O` [Compound No. 163, Tyr-Asn-Trp-Asn-Ser-PheΨ(CH2NH)Gly-Leu-Arg-Phe-NH2], the “Specific Activity (intracellular Ca ion level-increasing activity)” value worked out at 1.

As for `CNC(=N)NCCC[C@H](NC(=O)[C@H](CC(C)C)NC(=O)NNC(=O)[C@H](Cc1ccccc1)NC(=O)[C@H](CO)NC(=O)[C@H](CC(N)=O)NC(=O)[C@@H](NC(=O)[C@@H](CC(N)=O)NC(=O)[C@H](N)Cc1ccc(O)cc1)[C@@H](C)O)C(=O)N[C@@H](Cc1ccccc1)C(N)=O` [Compound No. 284, D-Tyr-D-Asn-Thr-Asn-Ser-Phe-AzaGly-Leu-Arg(Me)-Phe-NH2] (H-[dY][dN]TNSF[azaGly]L[Arg(Me)]F-NH2), the “Specific Activity (intracellular Ca ion level-increasing activity)” value is 1. As for “D-Tyr-Asn-Trp-Asn-Ser-Phe-Ala-Leu-Arg(Me)-Phe-NH2 ([dY]NWNSFAL[Arg(Me)]F-NH2; N-terminus assumed; SMILES CNC(=N)NCCC[C@H](NC(=O)[C@H](CC(C)C)NC(=O)[C@H](C)NC(=O)[C@H](Cc1ccccc1)NC(=O)[C@H](CO)NC(=O)[C@H](CC(N)=O)NC(=O)[C@H](Cc1c[nH]c2ccccc12)NC(=O)[C@H](CC(N)=O)NC(=O)[C@H](N)Cc1ccc(O)cc1)C(=O)N[C@@H](Cc1ccccc1)C(N)=O) [Compound No. 173]”, the “Specific Activity (intracellular Ca ion level-increasing activity)” value amounted to 1. Turning to `CNC(=N)NCCC[C@H](NC(=O)[C@H](CC(C)C)NC(=O)NNC(=O)[C@H](Cc1ccccc1)NC(=O)[C@H](CO)NC(=O)[C@H](CC(N)=O)NC(=O)[C@@H](Cc1c[nH]c2ccccc12)NC(=O)[C@H](N)Cc1ccc(O)cc1)C(=O)N[C@@H](Cc1ccccc1)C(N)=O` [Compound No. 242, D-Tyr-D-Trp-Asn-Ser-Phe-AzaGly-Leu-Arg(Me)-Phe-NH2] (H-[dY][dW]NSF[azaGly]L[Arg(Me)]F-NH2), the “Specific Activity (intracellular Ca ion level-increasing activity)” value amounted to 2.
